In patent publication US20180284123A1, “BARCODED RAPID ASSAY PLATFORM USEFUL FOR EFFICIENT ANALYSIS OF CANDIDATE MOLECULES AND METHODS OF MAKING AND USING THE PLATFORM” (California Institute of Technology, priority 2017, published 2018):
Numbered stars: 1 amine (or outer) side, 2 acyl side, 3 side chain; on linkers, the order of the positions; unused ones are H or OH. Bridge positions count the residues as written; N and C are the ends. Square brackets hold non-standard residues; d marks the D form. Triazole bridges read from a SMILES are 1,4-linked. Peptide text beside a SMILES is read from it. * marks the point of attachment. ξ: configuration not given here. Biotin = O=C1N[C@H]2[C@H](CS[C@H]2CCCCC(=O)*)N1; Lys(N3) = [N-]=[N+]=NCCCC[C@H](N)C(=O)O; ξLys(N3) = [N-]=[N+]=NCCCCC(N)C(=O)O; Ethylenediamine = C(CN[*:2])N[*:1]; PEG5 = NCCOCCOCCOCCOCCOCCC(=O)O; Pra = C#CC[C@H](N)C(=O)O

What was measured:
KRAS [1] = target: T1, KRAS (Homo sapiens, UniProt P01116); assay: B-RAP surface immunofluorescent assay, PCC ligand KRas EC50; assay type: binding; settings: for Avg F635, Full Centroid / Avg F635, Full Lane / avg F635, Left Part Centroid / avg F635, Middle Part Centroid / avg F635, Right Part Centroid: 10 μM KRas well of plate #1, pixel by pixel; for avg F635, Left Part Centroid: left part of centroid; for avg F635, Middle Part Centroid: middle part of centroid; for avg F635, Right Part Centroid: right part of centroid
T1 construct: His6-tagged human KRas Isoform 4B (residues 1-169); His6; made in house; host or cells: E. coli BL21(DE3), PQE80 vector
T1 sequence (P01116 1-169 isoform P01116-2): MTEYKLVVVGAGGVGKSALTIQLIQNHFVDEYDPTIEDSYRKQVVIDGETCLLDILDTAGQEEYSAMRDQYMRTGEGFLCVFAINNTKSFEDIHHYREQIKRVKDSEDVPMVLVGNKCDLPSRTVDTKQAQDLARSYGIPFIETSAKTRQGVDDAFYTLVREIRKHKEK
Protocol: The barcode patterned microchip surface was partitioned into 16 individual microwells using a pre-fabricated PDMS slab. Individual biotinylated PCC candidates were complexed to specific SAC-DNA conjugates, combined into a cocktail, and then self-assembled, via DNA hybridization, onto designated barcode stripes (FIGS. 2-4). Incubation with a specific concentration of the target protein preceded incubation with a primary capture antibody and then a fluorophore-conjugated secondary detection antibody. During assay execution, each well represents a different target concentration or assay condition. Once developed, the fluorescence of the barcodes is digitized using a GenePix 4400A array scanner, with an excitation laser power optimized to a power level of 40% (60 W), which maximizes detection sensitivity while also minimizing signal saturation. Data extraction occurs using 10 μm radius circles, taken along the length of a barcode stripe. A fluorescence signal representing the average of all the pixels within a given circle is collected. A total of ten circles (data-blocks) are measured along a 180 μm span of the middle portion for each individual barcode lane in a given well. 10 μM KRas protein gave an average F635 of 47,868.7, with a standard deviation of 4154.53. 1 μM KRas protein gave an average F635 of 11437.6, with a standard deviation of 1602.202. 100 nM KRas protein gave an average F635 of 1780.6, with a standard deviation of 236.38. This illustrates the intensity across a stripe compared to the intensity from the data-block extraction. After extraction the data is background corrected. The background signal arises from (a) non-specific binding of the primary and secondary antibodies (independent of [KRas]), but can vary across different barcode stripes), and (b) non-specific binding of KRas protein ([KRas] dependent). Background (a) was assessed by measuring the average signal in the null protein well for each stripe. Background (b) was assessed by measuring the average fluorescence for the dummy ligand (Biotin* probe) that was in each well. The background subtracted data was then graphed in Graphpad Prism 7 and fitted to a sigmoidal curve (Hill coefficient=1).
Measurement of PCC Ligand KRas EC50 with the Barcode Rapid Assay Platform
Protein Incubation Buffer: Tris-buffered saline (TBS)+0.05% Tween20 (TBST)
A pre-fabricated PDMS template was aligned onto the DNA barcode microchip, and the microchip was taped into a 10 cm petri dish. The wells on the platform were wet with 50 μL PBST before filling with blocking buffer and placing into a 37° C. incubator for 1 hr. Concurrently, 40 μL 1% BSA in PBS solutions containing 750 nM of a SAC-DNA conjugate and 3.75 μM of one biotinylated PCC ligand or biotin-A20-Cy3 blank were prepared for each SAC-DNA conjugate. The biotinylated ligands were allowed to complex with the SAC protein for one hour before pooling the SAC-DNA-ligand solutions (final [SAC-DNA-ligand conjugates]=50 nM). The blocking buffer was aspirated and each well was loaded with the SAC-DNA-ligand conjugates cocktail for hybridization with the DNA barcode at 37° C. for one hour. The wells were washed with PBST (3×) before loading serially diluted solutions of KRas protein in protein buffer (0 to 400 μM). After shaking at RT for one hour, the wells were rinsed with PBST (5×), making sure to pipet up/down with the first addition of PB ST. A (100:1) dilution of CST rabbit anti-Ras Ab (#39655) in 1° ab buffer was added to each well before shaking at RT for one hour. After rinsing the wells with PBST (3×), the wells were loaded with a (200:1) dilution of Abcam goat anti-rabbit-Alexafluor 647 linked ab (ab150079) in 2° ab buffer before shaking at RT for one hour. A final rinse of the wells with PBST (3×) proceeded peeling off the PDMS slab from the barcode microchip and dipping the barcode into the following solutions: PBS, (1:1) PBS: MQ H2O, MQ H2O (2×). […]

KRAS [2] = target: T1, KRAS; assay: GTPase Glo assay of intrinsic KRas GTPase activity; assay type: biochemical
Protocol: The intrinsic GTPase activity of WT KRas protein was measured using the GTPase-Glo Assay Kit (#V7681) from Promega Corporation (Madison, Wis.) on opaque white 96-well plates (#6005290) from Perkin Elmer Life Sciences (Waltham, Mass.). Luminescence was recorded on the Flexstation 3 plate reader used for multi-well ELISAs.
KRas inhibition assays were carried out using a GTPase Glo Assay kit from Promega. Each candidate inhibitor PCC was initially tested by combining a concentration series of the ligand with 10 μM KRas protein in an opaque white 96-well plate and incubated with 5 μM 5′-guanosine triphosphate (GTP) for two hours. The remaining GTP was […]. Chemiluminescence was measured using a Flexstation 3 plate reader (All wavelengths mode, 500 ms integration), and plotted using Graphpad Prism 7. […] All measurements were done in triplicate.
The GTPase assays were run in triplicate on a multi-well plate using the GTPase Glo Assay kit from Promega with 10 μM KRas protein and varying concentrations of ligand (1 μM to 100 μM L1a, L8 and 2.5 μM to 250 μM L2). All reagents were warmed to RT before use. A single opaque white 96-well plate was charged with 12.5 μL GTPase/GAP buffer (GTPase buffer w/ 1 mM DTT), 10 μM KRas in GTPase/GAP buffer, or 10 μM KRas protein with either L1a, L2, or L8. Running the survey assays on the same plate allowed for direct comparison of the curves, but it necessitated the use of the first row/column on the multi-well plate which introduced some noise to the low ligand concentration points. A 12.5 μL aliquot of a 2×GTP solution (10 μM rGTP in GTPase Buffer) was then added to each well before allowing the plate to shake at RT for two hours (initial GTPase inhibition assay). The GTPase Glo reagent was reconstituted in the GTPase Glo Buffer (4 μL GTPase Glo (500×) reagent, 1996 μL GTPase Glo Buffer, 1 μL 10 mM ADP) immediately before adding 25 μL to each well. Shaking at RT for thirty minutes preceded the addition of 50 μL of the Detection reagent to each well. The plate was covered and incubated for a total of ten minutes before reading the luminescence with a Flexstation 3 plate reader (All wavelengths mode, 500 ms integration time), graphed using Graphpad Prism 7 (Sigmoidal 4PL mode), and an IC50 value was calculated.
For the full GTPase inhibition curve for L2, the above procedure was followed with the change that the incubation with KRas occurred over or four hours rather than two.
Consequently, the best three ligand fractions L1a, L2, and L8 were probed in a functional, solution phase assay for their ability to disrupt the intrinsic GTPase enzymatic activity of KRas protein. This assay measures the enzymatic conversion of GTP to GDP by KRas—a process that can potentially be inhibited. After incubation, an added GTPase Glo™ reagent converts the remaining GTP to ATP, and the ATP is converted into a chemiluminescent signal. Thus, higher chemiluminescence translates to lower KRas enzymatic activity. For the measurements, a fixed [KRas protein] is incubated with varying ligand concentrations. A concentration of 10 μM KRas protein was selected after generating a standard curve for the intrinsic KRas GTPase activity. KRas is a slow acting enzyme, so a KRas/PCC incubation time of two hours was used for the initial survey scans, while four hour incubation times were used for the higher resolution data. […] Thus, the modulation of KRas activity by L2 was recorded with an expanded concentration range.

KRAS [3] = target: T1, KRAS; assay: Multi-well ELISA, PCC ligand KRas EC50; assay type: binding; settings: triplicate, KRas 0→300 μM, Hill coefficient=1
Protocol: Measurement of PCC Ligand KRas EC50 Using the Multi-Well ELISA Technology
A 96-well Pierce Neutravidin Plate was washed with binding buffer (3×5 minutes at RT) before loading plate with a 1 μM solution of either blank (biotin-PEG5-NHAc) (singly) or biotinylated PCC ligand (in triplicate). The plate incubated for two hours before washing with binding buffer (3×5 minutes). Blocking buffer was added to each well and the plate blocked for one hour before undergoing washing with binding buffer (3×5 minutes). Each well was loaded with either binding buffer or KRas solution (0→300 μM), and the plate was incubated for 30 minutes. Plate washing with binding buffer (3×5 minutes) preceded incubating the plate with a (1000:1) dilution of 1° antibody (ab) rabbit anti-Ras (CST #3965) in ab buffer for thirty minutes. The plate was washed with binding buffer (3×5 minutes), loaded with a (2000:1) dilution of 2° ab goat anti-rabbit, HRP-linked ab (CST #7074) in ab buffer, and incubated for an additional thirty minutes. […] After quenching the enzymatic reaction with 1M H2SO4(aq) (100 μL) the plate was read at λ=450 nm within ten minutes. The data was double background corrected using the ab only absorbance and the dummy ligand absorbance, plotted using Prism GraphPad 7 (Sigmoidal 4PL mode with the Hill coefficient set=1), and an EC50 value was calculated.

KRAS [4] = target: T1, KRAS; assay: Barcoded rapid assay microchip binding curves of FIG. 6A/6B; settings: fitted curves of FIG. 6B, Hill coefficient set to 1, triplicate
Protocol: FIG. 6A is a picture of a barcoded rapid assay microchip (60) following its use for binding curve assays of KRAS to candidate ligands. […] EC50 binding curves of 15 candidate ligands were simultaneously generated against the target protein KRAS. Each microwell (ovals) represents a distinct concentration of KRAS that was added (values are given above each well). All 15 candidate ligands were measured in triplicate in each microwell.
FIG. 6B is a graph of the EC50 binding curves generated from the barcoded rapid assay microchip of FIG. 6A. Images of the barcoded rapid assay microchip were digitized using a fluorescence image scanner and plotted as binding curves (61) for each of the candidate ligands. All binding curves were fitted to Hill functions, with the Hill coefficient set to 1.
A series of peptide ligands that were identified as candidate binders to the protein KRas, using known literature methods, were prepared according to the methods of FIG. 3, and assembled into the individual microwells of the barcoded rapid assay microchip as illustrated in FIG. 4. […] Fluorescence imaging of the individual wells was then used to generate a fluorescence intensity, vs KRAS concentration, for each of the individual candidate ligands. […]

[5] = survey assays, 10 μM KRas, two hour incubation

| Compound | Avg F635, Full Centroid (KRAS [1]) | Avg F635, Full Lane (KRAS [1]) | avg F635, Left Part Centroid (KRAS [1]) | avg F635, Middle Part Centroid (KRAS [1]) | avg F635, Right Part Centroid (KRAS [1]) | effect on the KRas protein's GTPase activity (KRAS [2]; [5]) | EC50 (KRAS [1]; 13-point KRas concentration series, each point in decaplicate, Hill coefficient=1) [µM] | EC50 (KRAS [3]) [µM] | EC50 (KRAS [4]) [µM] | concentration above which ligand switches from weakly activating to strongly inhibiting (KRAS [2]; expanded concentration range, 10 μM KRas) | Hill coefficient of the titration curve (KRAS [2]; full inhibition curve, four-hour incubation) | rGTP hydrolyzed (KRAS [2]; ligand-only (no KRas) wells) | relative potency as inhibitor of KRas GTPase activity (KRAS [2]; [5]) |
| --- | --- | --- | --- | --- | --- | --- | --- | --- | --- | --- | --- | --- | --- |
| CCC(C)[C@@H]1NC(=O)CNC(=O)[C@H](Cc2cnc[nH]2)NC(=O)[C@@H](N)Cc2cn(nn2)CCCC[C@@H](C(=O)NCCOCCOCCOCCOCCOCCC(=O)NCCNC(=O)CCCC[C@@H]2SC[C@@H]3NC(=O)N[C@@H]32)NC(=O)CNC(=O)[C@H](C(C)C)NC1=O (single isomer, unassigned) [Ligand L1a, HGIVG] | 20134 | 18768 | 17838 | 20725 | 21906 | inhibitory effect | – | – | – | – | – | – | – |
| NC(=O)CC[C@@H]1NC(=O)[C@@H](N)Cc2cn(nn2)CCCC[C@@H](C(=O)NCCOCCOCCOCCOCCOCCC(=O)NCCNC(=O)CCCC[C@@H]2SC[C@@H]3NC(=O)N[C@@H]32)NC(=O)[C@H](Cc2ccc(O)cc2)NC(=O)[C@H](Cc2ccccc2)NC(=O)[C@H](CC(N)=O)NC(=O)[C@H](CC(=O)O)NC1=O (single isomer, unassigned) [Ligand L9b, QDNFY] | 45500 | 41812 | 39380 | 47791 | 49508 | – | 3.86 ± 0.57 | 3 ± 4.9 | 6.29 | – | – | – | – |
| CC(C)[C@@H]1NC(=O)[C@@H]2CCCN2C(=O)[C@H](C(C)C)NC(=O)CNC(=O)[C@H](CCC(=O)O)NC(=O)[C@@H](N)Cc2cn(nn2)CCCCC(C(=O)NCCOCCOCCOCCOCCOCCC(=O)NCCNC(=O)CCCC[C@@H]2SC[C@@H]3NC(=O)N[C@@H]32)NC1=O (some centres unmarked) [Ligand L2, EGVPV] (H-[Pra]EGVPV[ξLys(N3)][PEG5]-{Ethylenediamine-Biotin}; triazole 1-7) | – | – | – | – | – | inhibitory effect | – | – | – | above 20 μM | ~10 | Less than 5% | most potent |
| C[C@@H](O)[C@@H]1NC(=O)[C@@H](N)Cc2cn(nn2)CCCC[C@@H](C(=O)NCCOCCOCCOCCOCCOCCC(=O)NCCNC(=O)CCCC[C@@H]2SC[C@@H]3NC(=O)N[C@@H]32)NC(=O)[C@H](Cc2ccc(O)cc2)NC(=O)[C@H](Cc2ccccc2)NC(=O)[C@H](CC(N)=O)NC(=O)[C@H](CC(=O)O)NC1=O [Ligand L8, TDNFY] (H-[Pra]TDNFY[Lys(N3)][PEG5]-{Ethylenediamine-Biotin}; triazole 1-7) | – | – | – | – | – | inhibitory effect | – | – | – | – | – | – | – |
